The values that follow come from patent US12471596B2 (priority 2019, dated 2025).

Structures are written as SMILES. A value given as a limit tells only on which side of the number the result lay.

The subject of the assay is Phytophthora infestans. Kind of assay: microbe, parasite or virus in culture. The note with it: in Secale cereale, 168 h, read-out: control compared to the untreated check. It is filed as cell-based.
As for `COc1cncnc1OCC(=O)N1CCC(c2nc(C3=NOC(c4c(F)cccc4Br)C3)cs2)CC1` (stereo not shown) [Compound 78, 1-(4-(4-(5-(2-bromo-6-fluorophenyl)-4,5-dihydroisoxazol-3-yl)thiazol-2-yl)piperidin-1-yl)-2-((5-methoxypyrimidin-4-yl)oxy)ethan-1-one], the inhibition of growth at 30 ppm was not below 70%.
`CS(=O)(=O)Oc1cccc(Cl)c1C1CC(c2csc(C3CCN(C(=O)COc4ccnc(C(F)(F)F)n4)CC3)n2)=NO1` (stereo not shown) [Compound 21, 3-chloro-2-(3-(2-(1-(2-((2-(trifluoromethyl)pyrimidin-4-yl)oxy)acetyl)piperidin-4-yl)thiazol-4-yl)-4,5-dihydroisoxazol-5-yl)phenyl methanesulfonate]: the inhibition of growth at 30 ppm was not below 70%.
Turning to `O=C(CSc1ccc(C(F)(F)F)nn1)N1CCC(c2nc(C3=NOC(c4c(F)cccc4F)C3)cs2)CC1` (stereo not shown) [Compound 150, 1-(4-(4-(5-(2,6-difluorophenyl)-4,5-dihydroisoxazol-3-yl)thiazol-2-yl)piperidin-1-yl)-2-((6-(trifluoromethyl)pyridazin-3-yl)thio)ethan-1-one], the inhibition of growth at 30 ppm was not below 70%.
The same measure for `COc1nc(OC)nc(OCC(=O)N2CCC(c3nc(C4=NOC(c5c(Cl)cccc5OS(C)(=O)=O)C4)cs3)CC2)n1` (stereo not shown) [Compound 107, 3-chloro-2-(3-(2-(1-(2-((4,6-dimethoxy-1,3,5-triazin-2-yl)oxy)acetyl)piperidin-4-yl)thiazol-4-yl)-4,5-dihydroisoxazol-5-yl)phenyl methanesulfonate]: not below 70%; for `O=C(COc1cncc(C(F)(F)F)n1)N1CCC(c2nc(C3=NOC(c4c(Cl)cccc4Cl)C3)cs2)CC1` (stereo not shown) [Compound 55, 1-(4-(4-(5-(2,6-dichlorophenyl)-4,5-dihydroisoxazol-3-yl)thiazol-2-yl)piperidin-1-yl)-2-((6-(trifluoromethyl)pyrazin-2-yl)oxy)ethan-1-one]: not below 70%.
Regarding `COc1ccnc(OCC(=O)N2CCC(c3nc(C4=NOC(c5c(F)cccc5Br)C4)cs3)CC2)n1` (stereo not shown) [Compound 44, 1-(4-(4-(5-(2-bromo-6-fluorophenyl)-4,5-dihydroisoxazol-3-yl)thiazol-2-yl)piperidin-1-yl)-2-((4-methoxypyrimidin-2-yl)oxy)ethan-1-one], the inhibition of growth at 30 ppm was not below 70%.
The same measure for `O=C(COc1cncc(C(F)(F)F)n1)N1CCC(c2nc(C3=NOC(c4c(Cl)cccc4C(F)(F)F)C3)cs2)CC1` (stereo not shown) [Compound 68, 1-(4-(4-(5-(2-chloro-6-(trifluoromethyl)phenyl)-4,5-dihydroisoxazol-3-yl)thiazol-2-yl)piperidin-1-yl)-2-((6-(trifluoromethyl)pyrazin-2-yl)oxy)ethan-1-one]: not below 70%; for `O=C(CSc1ccc(C(F)(F)F)nn1)N1CCC(c2nc(C3=NOC(c4c(F)cccc4Br)C3)cs2)CC1` (stereo not shown) [Compound 151, 1-(4-(4-(5-(2-bromo-6-fluorophenyl)-4,5-dihydroisoxazol-3-yl)thiazol-2-yl)piperidin-1-yl)-2-((6-(trifluoromethyl)pyridazin-3-yl)thio)ethan-1-one]: not below 70%; for `O=C(COc1cncc(C(F)(F)F)n1)N1CCC(c2nc(C3=NOC(c4c(F)cccc4F)C3)cs2)CC1` (stereo not shown) [Compound 58, 1-(4-(4-(5-(2,6-difluorophenyl)-4,5-dihydroisoxazol-3-yl)thiazol-2-yl)piperidin-1-yl)-2-((6-(trifluoromethyl)pyrazin-2-yl)oxy)ethan-1-one]: not below 70%.
Take `N#Cc1nccc(OCC(=O)N2CCC(c3nc(C4=NOC(c5c(O)cccc5Cl)C4)cs3)CC2)n1` (stereo not shown) [Compound 95, 4-(2-(4-(4-(5-(2-chloro-6-hydroxyphenyl)-4,5-dihydroisoxazol-3-yl)thiazol-2-yl)piperidin-1-yl)-2-oxoethoxy)pyrimidine-2-carbonitrile]: the inhibition of growth at 30 ppm was not below 70%.
In the case of `O=C(COc1cncc(C(F)(F)F)n1)N1CCC(c2nc(C3=NOC(c4c(F)cccc4Br)C3)cs2)CC1` (stereo not shown) [Compound 59, 1-(4-(4-(5-(2-bromo-6-fluorophenyl)-4,5-dihydroisoxazol-3-yl)thiazol-2-yl)piperidin-1-yl)-2-((6-(trifluoromethyl)pyrazin-2-yl)oxy)ethan-1-one], the inhibition of growth at 30 ppm is not below 70%.
Next, `O=C(COc1nccc(C(F)(F)F)n1)N1CCC(c2nc(C3=NOC(c4c(Cl)cccc4Cl)C3)cs2)CC1` (stereo not shown) [Compound 47, 1-(4-(4-(5-(2,6-dichlorophenyl)-4,5-dihydroisoxazol-3-yl)thiazol-2-yl)piperidin-1-yl)-2-((4-(trifluoromethyl)pyrimidin-2-yl)oxy)ethan-1-one]: not below 70%; `COc1nccnc1OCC(=O)N1CCC(c2nc(C3=NOC(c4c(Cl)cccc4C(F)(F)F)C3)cs2)CC1` (stereo not shown) [Compound 65, 1-(4-(4-(5-(2-chloro-6-(trifluoromethyl)phenyl)-4,5-dihydroisoxazol-3-yl)thiazol-2-yl)piperidin-1-yl)-2-((3-methoxypyrazin-2-yl)oxy)ethan-1-one]: not below 70%; `COc1cncnc1OCC(=O)N1CCC(c2nc(C3=NOC(c4c(Cl)cccc4C#N)C3)cs2)CC1` (stereo not shown) [Compound 71, 3-chloro-2-(3-(2-(1-(2-((5-methoxypyrimidin-4-yl)oxy)acetyl)piperidin-4-yl)thiazol-4-yl)-4,5-dihydroisoxazol-5-yl)benzonitrile]: not below 70%.
Regarding `COc1cncnc1OCC(=O)N1CCC(c2nc(C3=NOC(c4c(Cl)cccc4C(F)(F)F)C3)cs2)CC1` (stereo not shown) [Compound 80, 1-(4-(4-(5-(2-chloro-6-(trifluoromethyl)phenyl)-4,5-dihydroisoxazol-3-yl)thiazol-2-yl)piperidin-1-yl)-2-((5-methoxypyrimidin-4-yl)oxy)ethan-1-one], the inhibition of growth at 30 ppm was not below 70%.
On to `CSc1nccnc1OCC(=O)N1CCC(c2nc(C3=NOC(c4c(F)cccc4Cl)C3)cs2)CC1` (stereo not shown) [Compound 142, 1-(4-(4-(5-(2-chloro-6-fluorophenyl)-4,5-dihydroisoxazol-3-yl)thiazol-2-yl)piperidin-1-yl)-2-((3-(methylthio)pyrazin-2-yl)oxy)ethan-1-one], for which the inhibition of growth at 30 ppm is not below 70%.
`COc1cncc(OCC(=O)N2CCC(c3nc(C4=NOC(c5c(Cl)cccc5C(F)(F)F)C4)cs3)CC2)n1` (stereo not shown) [Compound 102, 1-(4-(4-(5-(2-chloro-6-(trifluoromethyl)phenyl)-4,5-dihydroisoxazol-3-yl)thiazol-2-yl)piperidin-1-yl)-2-((6-methoxypyrazin-2-yl)oxy)ethan-1-one]: the inhibition of growth at 30 ppm is not below 70%.
Next, `O=C(COc1ccnc(C(F)(F)F)n1)N1CCC(c2nc(C3=NOC(c4c(Cl)cc(Cl)cc4Cl)C3)cs2)CC1` (stereo not shown) [Compound 19, 1-(4-(4-(5-(2,4,6-trichlorophenyl)-4,5-dihydroisoxazol-3-yl)thiazol-2-yl)piperidin-1-yl)-2-((2-(trifluoromethyl)pyrimidin-4-yl)oxy)ethan-1-one]: not below 70%.
Next, `COc1ncc(OCC(=O)N2CCC(c3nc(C4=NOC(c5c(Cl)cc(Cl)cc5Cl)C4)cs3)CC2)cn1` (stereo not shown) [Compound 133, 2-((2-methoxypyrimidin-5-yl)oxy)-1-(4-(4-(5-(2,4,6-trichlorophenyl)-4,5-dihydroisoxazol-3-yl)thiazol-2-yl)piperidin-1-yl)ethan-1-one]: not below 70%.
